Like-named read-outs stand apart in the source and are kept apart here. No end group written: not given here.
Key:
MCF7 = experiment: Anti-cancer assay, MTT, LD50; type: cell-based; details: MCF7 breast adenocarcinoma line, MTT, 24 hours with peptide
Description: Numbers are LD50 values (μg/mL).

in vitro [1] = details: human, WI38 normal lung fibroblast cells
in vitro [2] = type: cell-based, human; details: human, human red blood cells
Experimental: This hemolytic assay is based upon that presented in Journal of Peptide Research 53: 82-90 (1999). […] All procedures were performed according to safety protocols pertaining to the handling and disposal of human body fluids.
Red blood cells (RBCs) were washed three times with PBS (35 mM phosphate buffer 0.15 M NaCl, pH 7.0). RBCs suspended in PBS (0.4% (v/v); about 10 ml per 15 peptides) were prepared. Suspensions (100 μl) were aliquoted to each sample and control tube. Serially diluted peptide solutions (100 μl) were pipetted into the sample tubes. Negative control tubes contained 100 μl PBS; positive control tubes contained 100 μl 1% Triton-X100 detergent. All tubes were incubated for 1 hour at 37° C. The tubes were removed from the incubator and centrifuged at 1000 g for 5 minutes. Supernatant (100 μl) was pipetted to a 96-well polyvinyl chloride plate. The absorbance at 414 nm (A414) was measured, and used to calculate the percent hemolysis according to the following formula. [formula]

WI38 = details: MTT, 24 hours with peptide; normal fibroblast line
[3] = LD50 WI38, WI38 normal lung fibroblast line, MTT, 24 hours with peptide
[4] = pH 7, hemolytic assay, concentration at 50% hemolysis, 1 hour at 37° C., read-out: LD50
[5] = pH 7, Table 26, valine substitution, read-out: Hemolysis RBC LD50
[6] = WI-38 LD50, Table 26, valine substitution

In the case of VAKFLAKFLKKAL-NH2 [FLAK50 Q1V], the “LD50 MCF7” value (MCF7) is reported as 92 µg/mL and the CC50 at 24 h (in vitro [1]; [3]) is reported as 64 µg/mL.

In the case of “VAKFLAKFLKKAL-NH2 [P502, VAKFLAKFLKKAL-NH2]”, the HC50 at 1 h (in vitro [2]; [4]) is reported as 100 µg/mL.

In the case of VAKFLAKFLKKAL-NH2 [compound 502], the HC50 at 1 h (in vitro [2]; [5]) is reported as 100 µg/mL and the CC50 at 24 h (in vitro [1]; [6]) is reported as 64 µg/mL.

For VAKKFAKKFKKFAKKFAKFAFAF-NH2 [P503], the “LD50 MCF7” value (MCF7) was 210 µg/mL, the HC50 at 1 h (in vitro [2]; [4]) was 20 µg/mL and the CC50 at 24 h (in vitro [1]; [3]) was 150 µg/mL.

“VAKKFAKKFKKFAKKFAKFAFAF-NH2 [compound 503]” gave an HC50 at 1 h (in vitro [2]; [5]) of 20 µg/mL and a CC50 at 24 h (in vitro [1]; [6]) of 150 µg/mL.

With VAKKLAKLAKKLLAL-NH2 [FLAK43 AM V] the “LD50 MCF7” value (MCF7) was 86 µg/mL and the CC50 at 24 h (in vitro [1]; [3]) was 85 µg/mL.

For “VAKKLAKLAKKLLAL-NH2 [P505, VAKKLAKLAKKLLAL-NH2]”, the HC50 at 1 h (in vitro [2]; [4]) was 620 µg/mL.

Substance VAKKLAKLAKKLLAL-NH2 [compound 505] has an HC50 at 1 h (in vitro [2]; [5]) of 620 µg/mL and a CC50 at 24 h (in vitro [1]; [6]) of 85 µg/mL.

With VAKLLAKALKKLL-NH2 [FLAK50D V] the “LD50 MCF7” value (MCF7) was 45 µg/mL and the CC50 at 24 h (in vitro [1]; [3]) was 75 µg/mL.

VAKLLAKALKKLL-NH2 [P506] showed an HC50 at 1 h (in vitro [2]; [4]) of 120 µg/mL.

In the case of VALALKALKKALKKLKKALKKAL-NH2 [P30], the “WI38 LD50” value (WI38) is reported as 93 µg/mL.

For “VALALKALKKALKKLKKALKKAL-OH [HECATE AC V]”, the “LD50 MCF7” value (MCF7) was 160 µg/mL and the CC50 at 24 h (in vitro [1]; [3]) was 190 µg/mL.

Substance “VALALKALKKALKKLKKALKKAL-OH [compound 508]” has an HC50 at 1 h (in vitro [2]; [5]) of 70 µg/mL and a CC50 at 24 h (in vitro [1]; [6]) of 190 µg/mL.

For VALALKALKKL-NH2 [compound 180], the HC50 at 1 h (in vitro [2]; [5]) was 850 µg/mL and the CC50 at 24 h (in vitro [1]; [6]) was 1000 µg/mL.

For “VALALKALKKLAKKLKKLAKKAL-NH2 [FLAK04 AM V]”, the “LD50 MCF7” value (MCF7) was 84 µg/mL and the CC50 at 24 h (in vitro [1]; [3]) was 95 µg/mL.

Work on “VALALKALKKLAKKLKKLAKKAL-NH2 [compound 509]” yielded an HC50 at 1 h (in vitro [2]; [5]) of 40 µg/mL and a CC50 at 24 h (in vitro [1]; [6]) of 95 µg/mL.

In the case of VALALKALKKLLKKLKKLAKKAL-NH2 [03 AMV], the “LD50 MCF7” value (MCF7) is reported as 62 µg/mL and the CC50 at 24 h (in vitro [1]; [3]) is reported as 77 µg/mL.

— patent US20050209157A1, “Short bioactive peptides and methods for their use” (priority 2001, published 2005)
